The values that follow come from US9399045B2, “Inhibition of choroidal neovascularization” (Washington University, priority 2011, dated 2016).

In assay [1] the test system is ABCA1 gene expression. As to the kind of experiment: ABCA1 gene expression in peritoneal macrophages treated with LXR agonist (real time qPCR). The assay is classed as cell-based, mouse. Conditions: peritoneal young or old macrophages, 24 hours, 0 to 10 μM, FIG. 4a-b. The procedure: (§1) Peritoneal macrophages recruitment was elicited by intraperitoneal injection of 4% thioglycollate. Five days after injection, macrophages were harvested and cultured in RPMI-1640 overnight (Gibco, Grand Island, N.Y.). Macrophages were then washed with RPMI-1640 and non-adherent cells removed. Total RNA was prepared from splenic macrophage, peritoneal macrophages, retina, choroid or PBMCs using the RNeasy mini kit (Qiagen inc., Valencia, Calif.). cDNA was prepared using the High Capacity cDNA Archive Kit (Applied Biosystems) and PCR amplifications of cDNA were performed using Taqman probe-based gene expression assay (Applied Biosystems) as previously described (Kelly, J., et al., Senescence regulates macrophage activation and angiogenic fate at sites of tissue injury in mice. J Clin Invest 117, 3421-3426, 2007). Primer and probe sets were as follows: ActB. Mm00607939_s1; ABCA1, Mm00442649_ml; ABCG1, Mm01348250_ml; IL-6, Mm00446190_ml; FasL, Mm00438864_ml; IL-10, Mm99999062_ml; 18s rRNA. Hs99999901_s1; ABCA1, Hs00442663_ml; ABCG1: Hs 01555199_gl; IL10, Hs00961622_ml. Young and old peritoneal macrophages were treated with Liver X Receptor (LXR) agonist, TO-901317 (Sigma-Aldrich, St. Louis, Mo.) for 24 hours. […] Treated macrophages were analyzed for ABCA1 and ABCG1 gene expression and their ability to inhibit HMVECs proliferation was tested.
In general terms: Quantitative PCR measures a nucleic acid by following its amplification.

Assay [2] deals with ABCG1 gene expression. As to the kind of experiment: ABCG1 gene expression in peritoneal macrophages treated with LXR agonist (real time qPCR). The assay is classed as cell-based, mouse. The note with it: peritoneal young or old macrophages, 24 hours, 0 to 10 μM, FIG. 4a-b. The procedure: as §1
In assay [3] the test system is HMVECs. Nature of the assay: Vascular endothelial cell proliferation assay: HMVECs co-cultured with treated peritoneal macrophages, [3H] thymidine. The assay is classed as cell-based, human. Here is the method: Cell proliferation was measured with an adaptation of a previously described method (Khan, A. A. & Apte, R. S. An assay for macrophage-mediated regulation of endothelial cell proliferation. Immunobiology 213, 695-699, 2008). HMVECs (1×10^4 cells) in log phase were cultured in 96-well round-bottomed plates for adherence. HMVECS cells were then co-cultured with peritoneal macrophages (1:25 ratio) and incubated with 5 μCi/ml [^3H] thymidine (PerkinElmer) for 24 hours. Cells were harvested onto glass fiber filters (Packard) and incorporated [3H] thymidine was read using TopCount NXT (PerkinElmer).
Young and old peritoneal macrophages were treated with Liver X Receptor (LXR) agonist, TO-901317 (Sigma-Aldrich, St. Louis, Mo.) for 24 hours. LXR agonist was dissolved in DMSO (vehicle) and treatment dosage ranged from 0 to 10 μM. Treated macrophages were analyzed for ABCA1 and ABCG1 gene expression and their ability to inhibit HMVECs proliferation was tested.
Peritoneal macrophages were transfected with 50 nM miScript miR33 inhibitor (anti-miR33) or negative control inhibitor (con anti-miR) using HiPerFect Transfection reagent (Qiagen). The transfection efficiency of macrophages was assessed using BLOCK-iT Fluorescent Oligo (Invitrogen). After miR33 inhibition, target genes and proteins were analyzed by qPCR and Western blot.

For assay [4], the system named is ABCA1 expression. Nature of the assay: ABCA1 expression in tissues of old mice after 5 days of intraperitoneal TO-901317. The assay is classed as in vivo, mouse. The note with it: 25 or 50 mg/kg/day for 5 days, FIG. 4e-g and FIG. 10. The procedure:
(§2) Total RNA was prepared from splenic macrophage, peritoneal macrophages, retina, choroid or PBMCs using the RNeasy mini kit (Qiagen inc., Valencia, Calif.). cDNA was prepared using the High Capacity cDNA Archive Kit (Applied Biosystems) and PCR amplifications of cDNA were performed using Taqman probe-based gene expression assay (Applied Biosystems) as previously described (Kelly, J., et al., Senescence regulates macrophage activation and angiogenic fate at sites of tissue injury in mice. J Clin Invest 117, 3421-3426, 2007). Primer and probe sets were as follows: ActB. Mm00607939_s1; ABCA1, Mm00442649_ml; ABCG1, Mm01348250_ml; IL-6, Mm00446190_ml; FasL, Mm00438864_ml; IL-10, Mm99999062_ml; 18s rRNA. […]
(§3) Whole cell lysate was extracted from mouse peritoneal macrophages or human PBMCs using lysis buffer (50 mM Tris (pH=7.4), 150 mM NaCl, 1% EDTA, 10% TritonX, and 1% SDS) with proteinase inhibitor (Complete, Roche). […] Proteins were detected and analyzed using the Odyssey Infrared Imaging System (LI-COR Biosciences, Lincoln, Nebr.). Band densities of ABCA1 and ABCG1 were quantified and normalized to β-actin.
(§4) Old mice (>18 months) were given a daily intraperitoneal injection of vehicle, 25 mg/kg or 50 mg/kg TO-901317. After five consecutive days treatment, CNV was induced in one set of mice (5 of each group) and analyzed as described above. […]

In assay [5] the test system is ABCG1 expression. As to the kind of experiment: ABCG1 expression in tissues of old mice after 5 days of intraperitoneal TO-901317. The assay is classed as in vivo, mouse. The note with it: 25 or 50 mg/kg/day for 5 days, FIG. 4e-g and FIG. 10. Here is the method: as §2, §3, §4
The subject of assay [6] is choroidal neovascularization (CNV). Nature of the assay: Laser-induced CNV in old mice. The note with it: intraperitoneal, 25 or 50 mg/kg/day for 5 days prior to laser, FIG. 4h-i. The assay is classed as in vivo, mouse. Here is the method: Rupture of Bruchs membrane with laser was used to initiate CNV in mice as described previously (Apte R S, Niederkorn J Y. Isolation and characterization of a unique natural killer cell inhibitory factor present in the anterior chamber of the eye. J. Immunol. 156:2667-2673, 1996). Briefly, mice were anesthetized by injecting ketamine hydrochloride (100 mg/kg) and xylazine (13.4 mg/kg) intraperitoneally, and their pupils were dilated with 1% tropicamide. Using argon green laser, four laser burns were placed around the optic nerve (0.1 second, 50 μm, and 110 mW). Seven days after laser, mice were anesthetized as described above and perfused intraventricularly with FITC-dextran (Sigma-Aldrich). Mice were euthanized in a CO2 chamber, and their eyes were harvested for tissue processing. […]
Micro scissors were used to make four radial incisions in the sclerochoroidal “eyecup” to prepare choroidal flat mounts on glass slides. […] The choroidal flat mounts were analyzed for the presence of CNV by confocal microscopy. The extent of choroidal neovascularization was quantified by Metamorph Imaging software. […]
as §4

As to `O=S(=O)(c1ccccc1)N(CC(F)(F)F)c1ccc(C(O)(C(F)(F)F)C(F)(F)F)cc1` [TO-901317, N-(2,2,2-trifluoro-ethyl)-N-[4-(2,2,2-tri-fluoro-1-hydroxy-1-trifluoromethyl-ethyl)-phenyl]-benzenesulfonamide], the ABCA1 gene expression entry in assay [1] is “dose-dependent upregulation”. Moreover, the ABCG1 gene expression entry in assay [2] is “dose-dependent upregulation”. In addition, the “ability of treated macrophages to inhibit HMVECs proliferation” value in assay [3] (Abca1−/− macrophages treated with LXR agonist) is “does not restore their ability to inhibit HMVECs proliferation”. Besides, in assay [3] (old macrophages treated with LXR agonist, co-cultured with HMVECs, FIG. 4d), the “ability of treated macrophages to inhibit endothelial cell proliferation” value is reported as “completely restored their ability to inhibit endothelial cell proliferation”. Further, in assay [4], the “ABCA1 expression compared to vehicle treated mice” value is given as “strong systemic upregulation”. For the same molecule, the “ABCG1 expression compared to vehicle treated mice” value in assay [5] is “strong systemic upregulation”. Moreover, the “CNV compared to vehicle treated old mice” value in assay [6] was “significant and dose dependent reduction in CNV”.
